Measured values as given in ChEMBL document CHEMBL2086350, “Structure-activity relationship and antitumor activity of thio-benzodiazepines as p53-MDM2 protein-protein interaction inhibitors” (Eur J Med Chem, 2012).

Columns and labels:
[1] = system: A549; test: Antiproliferative activity against human A549 cells expressing wild type p53 after 72 hrs by MTT assay; conditions: A549, 72 h
[2] = target: E3 ubiquitin-protein ligase Mdm2 (Homo sapiens, UniProt Q00987); test: Inhibition of MDM2 binding domain assessed as inhibition of p53 binding to MDM2 after 1 hr by fluorescence polarization assay
[3] = system: U2OS; test: Antiproliferative activity against human U2OS cells expressing wild type p53 after 72 hrs by MTT assay
[4] = system: SAOS-2; test: Antiproliferative activity against human p53-deficient Saos2 cells after 72 hrs by MTT assay; conditions: SAOS-2, 72 h
[5] = system: NCI-H1299; test: Antiproliferative activity against human p53-deficient NCI-H1299 cells after 72 hrs by MTT assay; conditions: NCI-H1299, 72 h

E3 ubiquitin-protein ligase Mdm2, sequence (Q00987 whole entry, the tested form may be a part): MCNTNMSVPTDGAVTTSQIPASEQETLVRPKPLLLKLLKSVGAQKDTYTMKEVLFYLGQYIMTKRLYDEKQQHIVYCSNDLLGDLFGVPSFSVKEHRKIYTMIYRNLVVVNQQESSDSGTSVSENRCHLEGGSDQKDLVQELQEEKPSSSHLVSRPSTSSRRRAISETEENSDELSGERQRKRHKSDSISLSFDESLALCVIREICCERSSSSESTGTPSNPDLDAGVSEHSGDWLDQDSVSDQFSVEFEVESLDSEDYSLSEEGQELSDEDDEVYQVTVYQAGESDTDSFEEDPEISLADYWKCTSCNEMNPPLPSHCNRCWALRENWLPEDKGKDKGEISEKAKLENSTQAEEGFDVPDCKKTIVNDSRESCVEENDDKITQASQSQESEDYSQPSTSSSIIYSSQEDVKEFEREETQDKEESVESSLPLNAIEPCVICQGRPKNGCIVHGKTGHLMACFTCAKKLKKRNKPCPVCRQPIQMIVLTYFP

Row | SMILES | IC50 [1] [µM] | Ki [2] [µM] | IC50 [3] [µM] | IC50 [4] [µM] | IC50 [5] [µM]
1 | COC(=O)C(c1ccc(Cl)cc1)N1C(=O)c2ccc(NCc3ccc(C(F)(F)F)cc3)cc2NC(=S)C1c1ccc(Cl)cc1 (centres undefined) | 25.7 | 6.7 | 15.9 | 25.3 | 42.6
2 | COC(=O)C(c1ccc(Cl)cc1)N1C(=O)c2ccc(Cl)cc2NC(=S)C1c1ccc(Cl)cc1 (centres undefined) | 37.2 | 1.37 | 12.1 | 11.1 | 16.5
3 | COC(=O)C(c1ccc(Cl)cc1)N1C(=O)c2cccc(Cl)c2NC(=S)C1c1ccc(Cl)cc1 (centres undefined) | > 100 | > 100 | 88.5 | 61.8 | > 100
4 | COC(=O)C(c1ccc(Cl)cc1)N1C(=O)c2cc(Cl)ccc2NC(=S)C1c1ccc(Cl)cc1 (centres undefined) | 18.7 | 0.721 | 3.5 | 8.91 | 24.7
5 | COC(=O)C(c1ccc(Cl)cc1)N1C(=O)c2ccc(F)cc2NC(=S)C1c1ccc(Cl)cc1 (centres undefined) | 8.44 |  | 12 | 6.59 | 16.5
6 | COC(=O)C(c1ccc(Cl)cc1)N1C(=O)c2cc(F)c(F)cc2NC(=S)C1c1ccc(Cl)cc1 (centres undefined) | 11.3 | > 100 | 2.61 | 3.84 | 5.73
7 | COC(=O)C(c1ccc(F)cc1)N1C(=O)c2ccc(Cl)cc2NC(=S)C1c1ccc(F)cc1 (centres undefined) | 25.6 | 1.72 | 44.3 | 12.7 | > 100
8 | COC(=O)C(c1ccc(F)cc1)N1C(=O)c2cc(Cl)ccc2NC(=S)C1c1ccc(Cl)cc1 (centres undefined) | 19.7 |  | 7.23 | 6.48 | 29.7
9 | COC(=O)C(c1ccc(Cl)cc1)N1C(=O)c2cccc(OC)c2NC(=S)C1c1ccc(Cl)cc1 (centres undefined) | > 100 | 8.18 | > 100 | > 100 | > 100
10 | COC(=O)C(c1ccc(Cl)cc1)N1C(=O)c2ccc(C(F)(F)F)cc2NC(=S)C1c1ccc(Cl)cc1 (centres undefined) | 26.9 |  | 5.69 | 6.78 | 11.1
11 | COC(=O)C(c1ccc(F)cc1)N1C(=O)c2ccc(C(F)(F)F)cc2NC(=S)C1c1ccc(Cl)cc1 (centres undefined) | 9.44 | 3.02 | 11.8 | 13.7 | 14
12 | COC(=O)C(c1ccc(Cl)cc1)N1C(=O)c2ccc(OC)cc2NC(=S)C1c1ccc(Cl)cc1 (centres undefined) | > 100 | > 100 | 35.3 | 20 | > 100
13 | COC(=O)C(c1ccc(Cl)cc1)N1C(=O)c2cccc(C)c2NC(=S)C1c1ccc(Cl)cc1 (centres undefined) | > 100 | > 100 | 27.8 | 19.1 | 73.3
14 | COC(=O)C(c1ccc(Cl)cc1)N1C(=O)c2cc(C)ccc2NC(=S)C1c1ccc(Cl)cc1 (centres undefined) | > 100 | 37.7 | 32.7 | 25.5 | 73.6
15 | COC(=O)C(c1ccc(Cl)cc1)N1C(=O)c2cc(F)ccc2NC(=S)C1c1ccc(Cl)cc1 (centres undefined) | 12.9 |  | 7.53 | 11.9 | 14.5
16 | COC(=O)C(c1ccc(F)cc1)N1C(=O)c2ccc(F)cc2NC(=S)C1c1ccc(Cl)cc1 (centres undefined) | 19.4 | 1.05 | 28 | 32.1 | 25
17 | COC(=O)C(c1ccc(Cl)cc1)N1C(=O)c2ccc(Br)cc2NC(=S)C1c1ccc(Cl)cc1 (centres undefined) | > 100 | 3.98 | 35.7 | 11 | 35.4
18 | COC(=O)C(c1ccc(Cl)cc1)N1C(=O)c2ccc(Cl)cc2NC(=S)C1c1ccc(C(F)(F)F)cc1 (centres undefined) | 23.7 |  | 27.4 | 9.23 | 39.5
19 | COC(=O)C(c1ccc(Cl)cc1)N1C(=O)c2ccc(Cl)cc2NC(=S)C1c1ccc(OC)cc1 (centres undefined) | > 100 | 11.9 | 33.9 | > 100 | > 100
20 | COC(=O)C(c1ccc(Cl)cc1)N1C(=O)c2ccc(Cl)cc2N=C(SC)C1c1ccc(Cl)cc1 (centres undefined) | > 100 | > 100 | 67.6 | > 100 | > 100
21 | CCOC(=O)CSC1=Nc2cc(OC)ccc2C(=O)N(C(C(=O)OC)c2ccc(Cl)cc2)C1c1ccc(Cl)cc1 (centres undefined) | > 100 | 21.1 | > 100 | > 100 | > 100
22 | COc1ccc(C2=N[C@@H](c3ccc(Cl)cc3)[C@@H](c3ccc(Cl)cc3)N2C(=O)N2CCNC(=O)C2)c(OC(C)C)c1 [NUTLIN-3] | 15 |  | 19.6 | 12.1 | 20.4
